Results on nine compounds are retold here after US8962608B2, “Cycloalkylnitrile pyrazole carboxamides as janus kinase inhibitors” (Merck Sharp & Dohme Corp., priority 2011, dated 2015).

The term IC50 denotes the midpoint of a concentration-inhibition curve.

Some results are limits rather than exact numbers.
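Also: biochemical JAK kinase assay with HTRF detection.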

The target in the experiment is JAK2 (recombinant purified GST-tagged catalytic domain) (Homo sapiens (Human), UniProt O60674). The experiment in a line: biochemical.
JAK2 (recombinant purified GST-tagged catalytic domain), sequence (O60674 849-1124): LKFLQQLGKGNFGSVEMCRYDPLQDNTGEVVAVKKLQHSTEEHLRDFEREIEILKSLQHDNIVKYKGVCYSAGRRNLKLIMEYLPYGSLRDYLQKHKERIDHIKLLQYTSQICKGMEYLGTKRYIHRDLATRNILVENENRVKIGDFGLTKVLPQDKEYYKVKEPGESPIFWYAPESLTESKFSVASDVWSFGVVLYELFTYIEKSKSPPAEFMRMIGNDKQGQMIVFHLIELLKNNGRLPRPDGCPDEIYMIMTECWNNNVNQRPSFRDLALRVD
For the compound `N#C[C@H]1C[C@H](O)CC[C@@H]1n1cc(C(N)=O)c(Nc2ccc(C3CC3)cc2)n1` (single isomer, unassigned) [Example 25-14, 1-[(1S,2S,4R or 1R,2R,4S)-2-cyano-4-hydroxycyclohexyl]-3-[(4-cyclopropylphenyl)amino]-1H-pyrazole-4-carboxamide], the IC50 amounted to 25 nM. As for `N#C[C@H]1C[C@H](O)CC[C@@H]1n1cc(C(N)=O)c(Nc2ccc(C(F)(F)F)c(F)c2)n1` (single isomer, unassigned) [Example 25-23, 1-[(1S,2S,4R or 1R,2R,4S)-2-cyano-4-hydroxycyclohexyl]-3-{[3-fluoro-4-(trifluoromethyl)phenyl]amino}-1H-pyrazole-4-carboxamide], the IC50 was found to be 28 nM.

With `N#C[C@H]1C[C@H](OCC2CC2)CC[C@@H]1n1cc(C(N)=O)c(Nc2ccc([C@@H](O)C(F)(F)F)cc2)n1` (single isomer, unassigned) [Example 26-5, 1-[(1S,2S,4R or 1R,2R,4S)-2-cyano-4-(cyclopropylmethoxy)cyclohexyl]-3-({4-[(1R or 1S)-2,2,2-trifluoro-1-hydroxyethyl]phenyl}amino)-1H-pyrazole-4-carboxamide], the IC50 was found to be 14 nM.

With `N#C[C@@H]1C[C@H](OCC2CC2)CC[C@H]1n1cc(C(N)=O)c(Nc2ccc([C@H](O)C(F)(F)F)cc2)n1` (single isomer, unassigned) [Example 26-6, 1-[(1R,2R,4R or 1S,2S,4S)-2-cyano-4-(cyclopropylmethoxy)cyclohexyl]-3-({4-[(1S or 1R)-2,2,2-trifluoro-1-hydroxyethyl]phenyl}amino)-1H-pyrazole-4-carboxamide], the 50% inhibitory concentration (IC50) was 32 nM.

Turning to `N#C[C@H]1C[C@H](OCC2CC2)CC[C@@H]1n1cc(C(N)=O)c(Nc2ccc([C@H](O)C(F)(F)F)cc2)n1` (single isomer, unassigned) [Example 26-7, 1-[(1S,2S,4R or 1R,2R,4S)-2-cyano-4-(cyclopropylmethoxy)cyclohexyl]-3-({4-[(1S or 1R)-2,2,2-trifluoro-1-hydroxyethyl]phenyl]amino)-1H-pyrazole-4-carboxamide], the 50% inhibitory concentration (IC50) is 9 nM.

Consider `N#C[C@@H]1C[C@H](OCC2CC2)CC[C@H]1n1cc(C(N)=O)c(Nc2ccc([C@@H](O)C(F)(F)F)cc2)n1` (single isomer, unassigned) [Example 26-8, 1-[(1R,2R,4R or 1S,2S,4S)-2-cyano-4-(cyclopropylmethoxy)cyclohexyl]-3-({4-[(1R or 1S)-2,2,2-trifluoro-1-hydroxyethyl]phenyl}amino)-1H-pyrazole-4-carboxamide], for which the IC50 came to 19 nM. In the case of `N#C[C@H]1C[C@@H](OCC2CC2)CC[C@@H]1n1cc(C(N)=O)c(Nc2ccc(F)cc2)n1` (single isomer, unassigned) [Example 26-9, 1-[(1S,2S,4S or 1R,2R,4R)-2-cyano-4-(cyclopropylmethoxy)cyclohexyl]-3-[(4-fluorophenyl)amino]-1H-pyrazole-4-carboxamide], the IC50 is 33 nM. Take `N#C[C@@H]1C[C@@H](OCC2CC2)CC[C@H]1n1cc(C(N)=O)c(Nc2ccc(F)cc2)n1` (single isomer, unassigned) [Example 26-10, 1-[(1R,2R,4S or 1S,2S,4R)-2-cyano-4-(cyclopropylmethoxy)cyclohexyl]-3-[(4-fluorophenyl)amino]-1H-pyrazole-4-carboxamide]: the IC50 amounted to 102 nM.

With `N#C[C@H]1C[C@@H](OCC2CC2)CC[C@H]1n1cc(C(N)=O)c(Nc2ccc(F)cc2)n1` (single isomer, unassigned) [Example 26-11, 1-[(1R,2S,4S or 1S,2R,4R)-2-cyano-4-(cyclopropylmethoxy)cyclohexyl]-3-[(4-fluorophenyl)amino]-1H-pyrazole-4-carboxamide], the IC50 was above 1500 nM.
